A word on the IC50: it is the midpoint of a concentration-inhibition curve.

The target of the assay is T1, rh beta tryptase (Homo sapiens, UniProt Q15661).
T1 construct: purchased Promega
T1 sequence (Q15661 31-275): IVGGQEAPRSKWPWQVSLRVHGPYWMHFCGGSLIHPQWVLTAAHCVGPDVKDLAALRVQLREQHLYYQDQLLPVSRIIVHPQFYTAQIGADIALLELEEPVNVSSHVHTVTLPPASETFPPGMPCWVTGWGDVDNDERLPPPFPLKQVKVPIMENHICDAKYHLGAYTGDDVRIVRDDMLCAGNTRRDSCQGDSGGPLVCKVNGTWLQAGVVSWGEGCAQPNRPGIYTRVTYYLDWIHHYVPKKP
As to the kind of experiment: tryptase inhibition test (cleavage of N-p-tosyl-Gly-Pro-Lys-para-nitroaniline, p-nitroaniline measured at 405 nm). To be noted: Tris HCl buffer pH 7.4 with calcium and heparin; substrate 0.6 mM; 5 min pre-incubation, 5 min incubation, 37° C. In kind it is biochemical. How it is done: The compounds according to the invention are characterised by their tryptase-inhibiting activity. This ability to inhibit tryptase was investigated using the test described below.
The measurement is carried out in Tris HCl buffer (100 mM), which additionally contains calcium (5 mM) and heparin (100 mg/ml), at pH 7.4. The standard used is rh beta tryptase which may be obtained commercially from Promega, for example. The substrate used is N-p-tosyl—Gly-Pro-Lys-para-nitroaniline in a concentration of 0.6 mM. The substrate is digested with tryptase to form p-nitroaniline which can be measured at 405 nm. Usually, an incubation period of 5 minutes and an incubation temperature of 37° C. are chosen. The enzyme activity used is 0.91 U/ml. The measurements are carried out in an Autoanalyser (Cobas Bio) made by Hofmann LaRoche. The potential inhibitory substances are used in concentrations of 10 μM in the screening, the inhibition of the tryptase being given in percent. The IC50 (concentration at which 50% of the enzyme activity is inhibited) is determined at over 70% inhibition. After 5 minutes' pre-incubation of the potential inhibitory substances, the substrate is added to start the reaction, the formation of p-nitroaniline being taken as a measurement of the enzyme activity after 5 minutes, after testing the linearity.
In the case of `NCc1ccc(OCc2cccc(CNCCc3cccc(NCc4cccc(COc5ccc(CN)cc5)c4)c3)c2)cc1` [Example 10], the IC50 turned out to be 35 nM.

On to `N=C(N)c1ccc(OCc2cccc(CNCCCCCCCNCc3cccc(COc4ccc(C(=N)N)cc4)c3)c2)cc1` [Example 23], for which the IC50 came out at 1.1 nM.

In the case of `CC(C)(CCC(C)(C)NCc1cccc(COc2ccc(C(=N)N)cc2)c1)NCc1cccc(COc2ccc(C(=N)N)cc2)c1` [Example 27], the IC50 came out at 1.7 nM.

Regarding `NCc1ccc(OCc2cccc(CNCCCCCNCc3cccc(COc4ccc(CN)cc4)c3)c2)cc1` [Example 7], the IC50 was determined as 4.3 nM.

On to `N=C(N)c1ccc(OCc2ccc(CNCCCCCCNCc3ccc(COc4ccc(C(=N)N)cc4)cc3)cc2)cc1` [Example 63], for which the half-maximal inhibitory concentration (IC50) came out at 0.74 nM.

As to `N=C(N)c1ccc(OCc2cccc(CNCCCCCNCc3cccc(COc4ccc(C(=N)N)cc4)c3)c2)cc1` [Example 17], the half-inhibitory concentration (IC50) came out at 1.4 nM.

As for `NCc1ccc(OCc2cccc(CNCC3CCCC(CNCc4cccc(COc5ccc(CN)cc5)c4)C3)c2)cc1` (centres unmarked) [Example 20], the IC50 was determined as 7.1 nM.

`N=C(N)c1ccc(OCc2cccc(CNCCCCC(NCc3cccc(COc4ccc(C(=N)N)cc4)c3)C(=O)O)c2)cc1` (centres unmarked) [Example 32]: the IC50 came to 32.4 nM.

`CC(C)(CCC(C)(C)NCc1cccc(COc2ccc(CN)cc2)c1)NCc1cccc(COc2ccc(CN)cc2)c1` [Example 14]: the IC50 stood at 13 nM.

As for `CN(CCCCCCN(C)Cc1cccc(COc2ccc(C(=N)N)cc2)c1)Cc1cccc(COc2ccc(C(=N)N)cc2)c1` [Example 24], the half-maximal inhibitory concentration (IC50) came out at 3.1 nM.

For `CC1(NCc2cccc(COc3ccc(CN)cc3)c2)CCC(C(C)(C)NCc2cccc(COc3ccc(CN)cc3)c2)CC1` (centres unmarked) [Example 18], the IC50 is 10.7 nM.

For `CN(CCCCCCN(C)Cc1cccc(COc2ccc(CN)cc2)c1)Cc1cccc(COc2ccc(CN)cc2)c1` [Example 31], the IC50 is 13 nM.

In the case of `N=C(N)c1ccc(OCc2cccc(CN3CCC(C4CCN(Cc5cccc(COc6ccc(C(=N)N)cc6)c5)CC4)CC3)c2)cc1` [Example 34], the IC50 was found to be 0.8 nM.

For the molecule `N=C(N)c1ccc(OCc2cccc(COCc3ccc(COCc4cccc(COc5ccc(C(=N)N)cc5)c4)cc3)c2)cc1` [Example 56], the IC50 amounted to 19 nM.

With `NCc1ccc(OCc2cccc(CNCc3cccc(CNCc4cccc(COc5ccc(CN)cc5)c4)c3)c2)cc1` [Example 15], the IC50 stood at 23 nM.

For the molecule `N=C(N)c1ccc(OCc2cccc(CNCc3ccc(CNCc4cccc(COc5ccc(C(=N)N)cc5)c4)cc3)c2)cc1` [Example 29], the half-maximal inhibitory concentration (IC50) was determined as 1.7 nM.

Take `N=C(N)c1ccc(OCc2cccc(CNCC3CCC(CNCc4cccc(COc5ccc(C(=N)N)cc5)c4)CC3)c2)cc1` (centres unmarked) [Example 26]: the IC50 worked out at 0.8 nM.

As for `N=C(N)c1ccc(OCc2cccc(CNCCOCCNCc3cccc(COc4ccc(C(=N)N)cc4)c3)c2)cc1` [Example 39], the IC50 amounted to 12 nM.

As for `N=C(N)c1ccc(OCc2cccc(CNCc3cccc(CNCc4cccc(COc5ccc(C(=N)N)cc5)c4)c3)c2)cc1` [Example 28], the 50% inhibitory concentration (IC50) amounted to 5.3 nM.

On to `N=C(N)c1ccc(OCc2cccc(CN(Cc3ccc(CN(Cc4cccc(COc5ccc(C(=N)N)cc5)c4)C4CC4)cc3)C3CC3)c2)cc1` [Example 62], for which the IC50 is 41 nM.

As to `CCCCN(CCCCCCN(CCCC)Cc1cccc(COc2ccc(C(=N)N)cc2)c1)Cc1cccc(COc2ccc(C(=N)N)cc2)c1` [Example 30], the IC50 amounted to 6.8 nM.

As to `CC1(NCc2cccc(COc3ccc(C(=N)N)cc3)c2)CCC(C(C)(C)NCc2cccc(COc3ccc(C(=N)N)cc3)c2)CC1` (centres unmarked) [Example 40], the IC50 amounted to 5 nM.

On to `CC(C)(CCCCC(C)(C)NCc1cccc(COc2ccc(C(=N)N)cc2)c1)NCc1cccc(COc2ccc(C(=N)N)cc2)c1` [Example 33], for which the IC50 worked out at 2.5 nM.

With `CN(Cc1ccc(CN(C)Cc2cccc(COc3ccc(CCN)cc3)c2)cc1)Cc1cccc(COc2ccc(CCN)cc2)c1` [Example 35], the IC50 stood at 31.6 nM.

As for `N=C(N)c1ccc(OCc2ccc(CN3CCC(C4CCN(Cc5ccc(COc6ccc(C(=N)N)cc6)cc5)CC4)CC3)cc2)cc1` [Example 64], the concentration for half-maximal inhibition (IC50) is 1.1 nM.

As for `N=C(N)c1ccc(OCc2ccc(CNCc3ccc(CNCc4ccc(COc5ccc(C(=N)N)cc5)cc4)cc3)cc2)cc1` [Example 65], the IC50 is 0.59 nM.

In the case of `NCc1ccc(OCc2cccc(CNC3CCC(CC4CCC(NCc5cccc(COc6ccc(CN)cc6)c5)CC4)CC3)c2)cc1` (centres unmarked) [Example 19], the IC50 came to 10 nM.

For `NCc1ccc(OCc2cccc(CNCC3CCC(CNCc4cccc(COc5ccc(CN)cc5)c4)CC3)c2)cc1` (centres unmarked) [Example 11], the 50% inhibitory concentration (IC50) turned out to be 4 nM.

For the molecule `NCc1ccc(OCc2cccc(CN3CCC(C4CCN(Cc5cccc(COc6ccc(CN)cc6)c5)CC4)CC3)c2)cc1` [Example 68], the IC50 was 2.5 nM.

As to `NCc1ccc(OCc2cccc(CNCc3ccc(CNCc4cccc(COc5ccc(CN)cc5)c4)cc3)c2)cc1` [Example 16], the IC50 stood at 12 nM.

With `NCCc1ccc(OCc2cccc(CN3CCC(C4CCN(Cc5cccc(COc6ccc(CCN)cc6)c5)CC4)CC3)c2)cc1` [Example 42], the IC50 came to 30.9 nM.

Regarding `N=C(N)c1ccc(OCc2cccc(CNCCCCCCNCc3cccc(COc4ccc(C(=N)N)cc4)c3)c2)cc1` [Example 25], the IC50 came to 1.2 nM.

Source of the values: patent US6780863B1, “Bis-basic compounds with tryptase-inhibitory activity” (Boehringer Ingelheim Pharma GmbH & Co. KG, priority 1999, dated 2004).
